# Laboratory results taken from patent US20260085034A1, “N-(BENZHYDRYL)CYCLOALKYLCARBOXAMIDE DERIVATIVES AS INHIBITORS OF GLYCOGEN SYNTHASE 1 (GYS1) AND METHODS OF USE THEREOF” (Maze Therapeutics, Inc., priority 2022, published 2026).
# Target: T1, recombinant hGYS1/GN1 protein (Homo sapiens, UniProt P13807)
# T1 sequence (P13807 1-737): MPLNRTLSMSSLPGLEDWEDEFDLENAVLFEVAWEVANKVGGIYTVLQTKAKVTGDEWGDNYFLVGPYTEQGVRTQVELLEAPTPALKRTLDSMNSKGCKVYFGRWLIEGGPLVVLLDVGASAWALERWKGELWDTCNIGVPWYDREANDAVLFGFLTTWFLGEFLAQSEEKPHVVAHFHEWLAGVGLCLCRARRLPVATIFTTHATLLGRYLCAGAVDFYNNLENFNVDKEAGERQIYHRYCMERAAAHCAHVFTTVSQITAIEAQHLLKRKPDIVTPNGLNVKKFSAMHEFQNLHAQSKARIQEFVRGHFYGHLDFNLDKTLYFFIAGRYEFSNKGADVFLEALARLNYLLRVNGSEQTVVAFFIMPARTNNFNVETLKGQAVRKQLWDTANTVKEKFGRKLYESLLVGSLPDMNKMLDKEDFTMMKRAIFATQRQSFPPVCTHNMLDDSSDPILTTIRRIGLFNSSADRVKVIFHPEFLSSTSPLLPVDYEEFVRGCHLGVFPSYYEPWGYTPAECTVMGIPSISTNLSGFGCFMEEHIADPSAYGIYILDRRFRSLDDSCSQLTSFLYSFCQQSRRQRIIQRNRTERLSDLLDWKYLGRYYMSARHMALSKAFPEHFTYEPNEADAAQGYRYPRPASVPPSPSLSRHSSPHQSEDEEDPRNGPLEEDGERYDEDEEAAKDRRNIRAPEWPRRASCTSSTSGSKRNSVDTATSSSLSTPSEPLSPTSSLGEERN
# T1 sequence (P46976 1-350 partner): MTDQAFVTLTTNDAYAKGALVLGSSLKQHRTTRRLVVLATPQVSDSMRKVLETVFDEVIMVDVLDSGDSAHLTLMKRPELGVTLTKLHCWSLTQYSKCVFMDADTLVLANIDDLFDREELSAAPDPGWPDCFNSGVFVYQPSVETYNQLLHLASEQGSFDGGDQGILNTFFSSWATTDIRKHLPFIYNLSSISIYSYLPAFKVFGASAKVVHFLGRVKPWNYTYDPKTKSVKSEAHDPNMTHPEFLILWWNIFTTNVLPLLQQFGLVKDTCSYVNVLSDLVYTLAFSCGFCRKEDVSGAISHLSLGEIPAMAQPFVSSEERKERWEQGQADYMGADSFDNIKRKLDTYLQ
# Assay: GYS1 coupled enzyme assay (PK/LDH)
# Format: biochemical
# Details: geometric mean of at least 2 assay runs; NADH absorbance at 340 nm
# Outline: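 Recombinant hGYS1/GN1 (50 nM) with 0.8 mM UDP-glucose, 0.2% glycogen and 1 mM glucose-6-phosphate in Tris pH 7.5, 2.5% DMSO. UDP formation coupled via PK/LDH to NADH oxidation, read at 340 nm over 10 min. Control-normalized slopes fit to Hill equation; IC50 as geometric mean of ≥2 runs.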
structure (smiles),measurement,value
"CC(C)c1ccc([C@@H](NC(=O)[C@H]2C[C@@H]2F)c2ccn[nH]2)cc1F (single isomer, unassigned) [compound 11]",IC50,145 nM
